Here are results for five molecules from US10759721B2, “Deuterated CFTR potentiators” (Vertex Pharmaceuticals (Europe) Limited, priority 2015, dated 2020).

The half-life is the time in which the quantity being followed falls by half.

Molecules are shown by their SMILES. Where two headings read alike, the source gives them in different places.

One data set concerns the target T1, CYP3A4 (Homo sapiens, UniProt P08684).
T1 construct: purchased BD Biosciences
The experiment in a line: Metabolic stability in human CYP3A4 Supersomes. It counts as in vitro ADME. To be noted: recombinant human CYP3A4 Supersomes, pH 7.4, human CYP3A4 Supersomes, read-out: calculated average half-life. As to the method:
(§1) Stock solutions (7.5 mM) of Compound 100 and Compound A were prepared in DMSO. The 7.5 mM stock solutions were diluted to 12.5 μM in acetonitrile (ACN). The human CYP3A4 Supersomes™ (2000 pmol/mL, purchased from BD Biosciences™) were diluted to 62.5 pmol/mL in 0.1 M potassium phosphate buffer, pH 7.4, containing 3 mM MgCl2. The diluted supersomes were added to wells of a 96-well polypropylene plate in triplicate. A 10 μL aliquot of the 12.5 μM test compound was added to the supersomes and the mixture was pre-warmed for 10 minutes. Reactions were initiated by addition of pre-warmed NADPH solution. The final reaction volume was 0.5 mL and contained 50 pmol/mL CYP3A4 Supersomes™, 0.25 μM test compound, and 2 mM NADPH in 0.1 M potassium phosphate buffer, pH 7.4, and 3 mM MgCl2. The reaction mixtures were incubated at 37° C., and 50 μL aliquots were removed at 0, 3, 7, 10, 20 and 30 minutes and added to 96-well plates which contained 125 μL of ice-cold ACN with internal standard to stop the reactions. The plates were stored at 4° C. for 20 minutes after which 75 μL of water was added to the wells of the plate before centrifugation to pellet precipitated proteins. Supernatants were transferred to another 96-well plate and analyzed for amounts of parent remaining by LC-MS/MS using an AB Sciex QTrap 5500 mass spectrometer.
(§2) The in vitro half-lives (t1/2 values) for test compounds were calculated from the slopes of the linear regression of LN (% parent remaining) vs incubation time relationship: in vitro t1/2=0.693/k, where k=−[slope of linear regression of LN (% parent remaining) vs incubation time].
as §1, with “Compound 120” for “Compound 100”, “Compound B” for “Compound A”

The target of a further data set is T2, human CYP3A4 Supersomes (Homo sapiens, UniProt P08684).
T2 construct: purchased BD Biosciences
The experiment in a line: Metabolic stability in human CYP3A4 Supersomes. Particulars: for average increase in t1/2 / apparent intrinsic clearance ratio: human CYP3A4 Supersomes; for Clint, app rCYP: human CYP3A4 Supersomes 50 pmol/mL, 0.25 μM test compound, CL int = (0.693/in vitro t1/2)(mL incubation volume/pmol P450). It is filed as in vitro ADME. The procedure:
as §1, §2
as §1, with “Compound 120” for “Compound 100”, “Compound B” for “Compound A”

Data set [1] deals with patients with cystic fibrosis carrying at least one copy of the G551D-CFTR mutation. Particulars: phase III trials; cited from earlier work.

T2 sequence (P08684 whole entry): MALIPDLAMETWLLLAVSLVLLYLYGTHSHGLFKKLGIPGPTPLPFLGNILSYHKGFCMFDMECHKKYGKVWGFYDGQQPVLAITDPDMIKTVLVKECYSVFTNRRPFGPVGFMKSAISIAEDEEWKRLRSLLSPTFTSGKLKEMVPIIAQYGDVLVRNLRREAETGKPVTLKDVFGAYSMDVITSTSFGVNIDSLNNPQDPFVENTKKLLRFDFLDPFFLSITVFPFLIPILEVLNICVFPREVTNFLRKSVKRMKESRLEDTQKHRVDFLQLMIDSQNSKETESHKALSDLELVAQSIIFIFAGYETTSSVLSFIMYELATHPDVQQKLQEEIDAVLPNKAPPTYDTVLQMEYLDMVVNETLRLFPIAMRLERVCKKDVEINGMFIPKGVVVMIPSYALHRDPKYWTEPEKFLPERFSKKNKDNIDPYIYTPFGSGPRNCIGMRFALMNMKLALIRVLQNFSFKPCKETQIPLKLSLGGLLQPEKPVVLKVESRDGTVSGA
T1 sequence (P08684 whole entry): as above

`[2H]C([2H])([2H])C(c1ccc(NC(=O)c2c[nH]c3ccccc3c2=O)cc1O)(C([2H])([2H])[2H])C([2H])([2H])[2H]` [Compound 100, N-(3-Hydroxy-4-(2-(methyl-d3)propan-2-yl-1,1,1,3,3,3-d6)phenyl)-4-oxo-1,4-dihydroquinoline-3-carboxamide]: the half-life at 0.25 μM on CYP3A4 (text of Example 3) was 26.5 min. Besides, the “average increase in t1/2” value at human CYP3A4 Supersomes (Compound 100 relative to Compound A) is 75%. For the same molecule, the “Clint, app rCYP” value on human CYP3A4 Supersomes (Table 2) came out at 0.26 ± 0.00 µL/min/pmol. Further, on human CYP3A4 Supersomes (ratio 100/A), the “apparent intrinsic clearance ratio” value is 0.57. Also, the “stability in Human CYP3A4 Supersomes relative to Compound A” value at human CYP3A4 Supersomes (relative to Compound A) was “more stable”.
As to `CC(C)(C)c1cc(C(C)(C)C)c(NC(=O)c2c[nH]c3ccccc3c2=O)cc1O` [VX-770, N-(2,4-di-tert-butyl-5-hydroxyphenyl)-4-oxo-1,4-dihydroquinoline-3-carboxamide], in data set [1], the “improvement in lung function and other key indicators of the disease (sweat chloride levels, likelihood of pulmonary exacerbations, body weight)” value is recorded as “marked levels of improvement”.
For the molecule `CC(C)(C)c1ccc(NC(=O)c2c[nH]c3ccccc3c2=O)cc1O` [Compound A, N-(4-(tert-butyl)-3-hydroxyphenyl)-4-oxo-1,4-dihydroquinoline-3-carboxamide, reference compound], the half-life at 0.25 μM on CYP3A4 (text of Example 3) is 15.1 min. At human CYP3A4 Supersomes (Table 2), the “Clint, app rCYP” value is 0.46 ± 0.02 µL/min/pmol.
For the molecule `CC(C)(C)c1cc(C(F)(F)F)c(NC(=O)c2c[nH]c3ccccc3c2=O)cc1O` [Compound B, N-(4-(tert-butyl)-5-hydroxy-2-(trifluoromethyl)phenyl)-4-oxo-1,4-dihydroquinoline-3-carboxamide, reference compound], at CYP3A4 (Example 4), the half-life at 0.25 μM was 14.5 min. The “Clint, app rCYP” value on human CYP3A4 Supersomes (Table 3) amounted to 0.48 ± 0.06 µL/min/pmol.
For `[2H]C([2H])([2H])C(c1cc(C(F)(F)F)c(NC(=O)c2c[nH]c3ccccc3c2=O)cc1O)(C([2H])([2H])[2H])C([2H])([2H])[2H]` [Compound 120, N-(5-hydroxy-4-(2-(methyl-d3)propan-2-yl-1,1,1,3,3,3-d6)-2-(trifluoromethyl)phenyl)-4-oxo-1,4-dihydroquinoline-3-carboxamide], the half-life at 0.25 μM on CYP3A4 (Example 4) is 20.6 min. Further, at human CYP3A4 Supersomes (Compound 120 relative to Compound B), the “average increase in t1/2” value is 42%. Besides, on human CYP3A4 Supersomes (Table 3), the “Clint, app rCYP” value came to 0.34 ± 0.00 µL/min/pmol. In addition, the apparent intrinsic clearance ratio at human CYP3A4 Supersomes (ratio 120/B) came to 0.71. At human CYP3A4 Supersomes (relative to Compound B), the “stability in Human CYP3A4 Supersomes relative to Compound B” value is “more stable”.
